2 compounds from patent US6861417B2, “Pyridin-4-YL or pyrimidin-4-YL substituted pyrazines” (SmithKline Beecham Corporation, priority 1998, dated 2005) can be followed below.

This experiment addresses T1, CSBP/p38 (Homo sapiens, UniProt Q16539).
T1 construct: made in house; host or cells: yeast
The experiment can be described thus: CSBP Kinase Assay (transfer of 32P from ATP to EGFR-derived peptide T669). Type of experiment: biochemical. As to the method: This assay measures the CSBP-catalyzed transfer of ^32P from [a-^32P]ATP to threonine residue in an epidermal growth factor receptor (EGFR)-derived peptide (T669) with the following sequence: […] (residues 661-681). (See Gallagher et al., “Regulation of Stress Induced Cytokine Production by Pyridinyl Imidazoles: Inhibition of CSPB Kinase”, BioOrganic & Medicinal Chemistry, 1997, 5, 49-64).
Reactions were carried in round bottom 96 well plate (from Corning) in a […]. Reactions contained (in final concentration): 25 mM Hepes, pH7.5; 10 mM MgCl2; 0.17 mM ATP (the Km[ATP] of p38 (see Lee et al., Nature […], n72 pg. 639-746 (December 1994) and Young et al., J. Biol. Chem. 272, n18 pg. 12116-12121 (May 1997)); 2.5 uCi of [g-32P]ATP; 0.2 mM sodium orthovanadate; 1 mM DTT; 0.1% BSA; 10% glycerol; 0.67 mM T669 peptide; and 2-4 nM of yeast-expressed, activated and purified p38. Reactions were initiated by the addition of [gamma-32P]Mg/ATP, and incubated for 25 min at 37 C. Inhibitors (dissolved in DMSO) were incubated with the reaction mixture on ice for 30 minutes prior to adding the 32P-ATP. Final DMSO concentration was 0.16%. […] Filters were washed with 75 mM phosphoric acids, and incorporated 32P was quantified using beta scintillation counter. […]

T1 sequence (Q16539 whole entry): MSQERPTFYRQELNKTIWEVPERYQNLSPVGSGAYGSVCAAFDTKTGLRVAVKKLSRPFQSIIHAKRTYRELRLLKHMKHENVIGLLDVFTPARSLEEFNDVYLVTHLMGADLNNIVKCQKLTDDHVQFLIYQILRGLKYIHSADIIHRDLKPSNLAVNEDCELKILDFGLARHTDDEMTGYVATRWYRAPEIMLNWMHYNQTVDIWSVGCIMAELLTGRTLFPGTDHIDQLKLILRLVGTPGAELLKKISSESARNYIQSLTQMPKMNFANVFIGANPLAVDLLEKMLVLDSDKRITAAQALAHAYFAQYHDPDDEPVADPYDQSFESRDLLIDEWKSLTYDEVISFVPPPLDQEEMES

As usually defined, the IC50 is the concentration that gives 50% inhibition. As for `Fc1ccc(-c2nccnc2-c2ccncc2)cc1` [Example 2, 2-(4-Fluorophenyl)-3-(pyridin-4-yl)pyrazine], the IC50 (CSBP kinase assay, called "this binding assay", read-out: positive inhibitory activity, IC50) is below 50 µM. On to `COc1ccc2cc(-c3nccnc3-c3ccncc3)ccc2c1` [Example 3, 2-(6-Methoxy)napthyl-2-yl-3-(4-pyridyl)pyrazine], for which the “inhibitory activity upon retesting” value (upon retesting, "at this micromolar amount" (IC50 of <50 uM)) is reported as “not found active”.
